Test results: patent US7741354B2, “Inhibitors of glutaminyl cyclase” (Probiodrug AG, priority 2006, dated 2010)

What follows are compounds tested against hQC (Homo sapiens, UniProt Q16769) (assay: Fluorometric (fluorescent) assay of hQC inhibition, IC50). Conditions: hQC inhibition; read-out: IC50.
Assay type: biochemical
Method in brief: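 QC activity followed at 30° C via pyroglutamyl aminopeptidase-coupled release of fluorophore, using either H-Gln-βNA (0.2 mM; ex/em 320/410 nm; 0.2 M Tris/HCl pH 8.0, 20 mM EDTA) or H-Gln-AMC (ex/em 380/460 nm; 0.05 M Tris/HCl pH 8.0, 5 mM EDTA).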

Chain of hQC (Q16769 29-361): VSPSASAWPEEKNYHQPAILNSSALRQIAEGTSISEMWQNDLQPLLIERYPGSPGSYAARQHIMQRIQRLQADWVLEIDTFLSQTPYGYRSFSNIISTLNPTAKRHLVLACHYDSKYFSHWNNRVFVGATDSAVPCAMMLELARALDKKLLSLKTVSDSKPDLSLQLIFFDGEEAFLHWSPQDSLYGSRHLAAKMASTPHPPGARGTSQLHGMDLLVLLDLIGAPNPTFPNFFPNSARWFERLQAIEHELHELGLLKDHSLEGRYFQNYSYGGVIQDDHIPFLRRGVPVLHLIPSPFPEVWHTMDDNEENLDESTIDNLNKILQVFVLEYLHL

`Cc1cc(C(Nc2ccc3[nH]cnc3c2)c2nnnn2CC2CCCO2)cc(C)c1O` (centres unmarked) [compound 131, 4-{(1H-Benzoimidazol-5-ylamino)-[1-(tetrahydro-furan-2-ylmethyl)-1H-tetrazol-5-yl]-methyl}-2,6-dimethyl-phenol] and `Oc1cccc(C(Nc2ccc3[nH]cnc3c2)c2nnnn2CC2CCCO2)c1` (centres unmarked) [compound 152] are within 1.5-fold of each other in IC50: 6.7 µM for the first, 9.4 µM for the second.

First: O=C(Cn1nnnc1C(Nc1ccc2[nH]cnc2c1)c1cc(Br)cc(Br)c1)NCCc1c[nH]c2ccccc12 (centres unmarked) [compound 187, 2-{5-[(1H-Benzoimidazol-5-ylamino)-(3,5-dibromo-phenyl)-methyl]-tetrazol-1-yl}-N-[2-(1H-indol-3-yl)-ethyl]-acetamide]
Second: Brc1cc(Br)cc(C(Nc2ccc3[nH]cnc3c2)c2nnnn2CCCCc2ccccc2)c1 (centres unmarked) [compound 189, (1H-Benzoimidazol-5-yl)-{(3,5-dibromo-phenyl)-[1-(4-phenyl-butyl)-1H-tetrazol-5-yl]-methyl}-amine]
The IC50 of the first is 2.4-fold lower: 1.3 µM for the first, 3.1 µM for the second.

`Fc1ccc2c(C(Nc3ccc4[nH]cnc4c3)c3nnnn3CC3CCCO3)c[nH]c2c1` (centres unmarked) [compound 144, (1H-Benzoimidazol-5-yl)-{(6-fluoro-1H-indol-3-yl)-[1-(tetrahydro-furan-2-ylmethyl)-1H-tetrazol-5-yl]-methyl}-amine] and `CSc1ccc(C(Nc2ccc3[nH]cnc3c2)c2nnnn2CC2CCCO2)cc1` (centres unmarked) [compound 140, (1H-Benzoimidazol-5-yl)-{(4-methylsulfanyl-phenyl)-[1-(tetrahydro-furan-2-ylmethyl)-1H-tetrazol-5-yl]-methyl}-amine] are within 1.5-fold of each other in IC50: 5.8 µM for the first, 6.7 µM for the second.

First: COc1ccccc1C(Nc1ccc2[nH]cnc2c1)c1nnnn1Cc1ccccc1Cl (centres unmarked) [compound 153]
Second: Clc1ccccc1Cn1nnnc1C(Nc1ccc2[nH]cnc2c1)c1cccnc1 (centres unmarked) [compound 135, (1H-Benzoimidazol-5-yl)-{[1-(2-chloro-benzyl)-1H-tetrazol-5-yl]-pyridin-3-yl-methyl}-amine]
The IC50 of the first is 2.7-fold lower: 3.1 µM for the first, 8.5 µM for the second. The first is the more potent here.

`CCOC(=O)C1CCCCC1n1nnnc1C(Nc1ccc2[nH]cnc2c1)c1ccc(OC)c(F)c1` (centres unmarked) [compound 132, 2-{5-[(1H-Benzoimidazol-5-ylamino)-(3-fluoro-4-methoxy-phenyl)-methyl]-tetrazol-1-yl}-cyclohexanecar-boxylic acid ethyl ester] and `CCOC(=O)C1CCCCC1n1nnnc1C(Nc1ccc2[nH]cnc2c1)c1ccccc1OC` (centres unmarked) [compound 183] are the same in IC50: 8.5 µM for the first, 8.5 µM for the second.

Going from `CC(C)(C)c1ccc(-n2nnnc2C(Nc2ccc3[nH]cnc3c2)c2ccc3nsnc3c2)cc1` (centres unmarked) [compound 117] to `COC(=O)c1cccc(C(Nc2ccc3[nH]cnc3c2)c2nnnn2-c2ccc(C(C)(C)C)cc2)c1` (centres unmarked) [compound 128, 3-{(1H-Benzoimidazol-5-ylamino)-[1-(4-tert-butyl-phenyl)-1H-tetrazol-5-yl]-methyl}-benzoic acid methyl ester], the IC50 rises from 4 µM to 6.7 µM (1.7-fold). The first is the more potent here.

Going from `c1ccc(Cn2nnnc2C(Nc2ccc3[nH]cnc3c2)c2ccc3nsnc3c2)cc1` (centres unmarked) [compound 147] to `Clc1ccc(C(Nc2ccc3[nH]cnc3c2)c2nnnn2Cc2ccccc2Cl)cc1` (centres unmarked) [compound 127, (1H-Benzoimidazol-5-yl)-[[1-(2-chloro-benzyl)-1H-tetrazol-5-yl]-(4-chloro-phenyl)-methyl]-amine], the IC50 rises from 1.3 µM to 3.1 µM (2.4-fold). The first is the more potent here.

First: CSc1ccc(C(Nc2ccc3[nH]cnc3c2)c2nnnn2CC2COC(C)(C)O2)cc1 (centres unmarked) [compound 130, (1H-Benzoimidazol-5-yl)-[[1-(2,2-dimethyl-[1,3]dioxolan-4-ylmethyl)-1H-tetrazol-5-yl]-(4-methylsulfanyl-phenyl)-methyl]-amine]
Second: O=[N+]([O-])c1cc(C(Nc2ccc3[nH]cnc3c2)c2nnnn2Cc2ccc(Cl)cc2)ccc1Cl (centres unmarked) [compound 197, (1H-Benzoimidazol-5-yl)-[[1-(4-chloro-benzyl)-1H-tetrazol-5-yl]-(4-chloro-3-nitro-phenyl)-methyl]-amine]
The IC50 of the first is 3.5-fold higher: 7.6 µM for the first, 2.2 µM for the second.

In the case of `CC(C)(C)OC(=O)Cn1nnnc1C(Nc1ccc2[nH]cnc2c1)c1ccc(-c2ccccn2)cc1` (centres unmarked) [compound 212, {5-[(1H-Benzoimidazol-5-ylamino)-(4-pyridin-2-yl-phenyl)-methyl]-tetrazol-1-yl}-acetic acid tert-butyl ester], the IC50 is reported as 2.2 µM.

Same assay, conditions: purified compound from preparative synthesis; fluorescent assay; read-out: IC50 hQC

`Cc1ccc(O)c(C(NCCCn2ccnc2)c2nnnn2C2CC2)c1` (centres unmarked) [Compound 68, 2-[(1-Cyclopropyl-1H-tetrazol-5-yl)-(3-imidazol-1-yl-propylamino)-methyl]-4-methyl-phenol] and `Cc1ccc(O)c(C(NCCCn2ccnc2)c2nnnn2Cc2ccc(Cl)cc2)c1` (centres unmarked) [Compound 3, 2-[[1-(4-Chloro-benzyl)-1H-tetrazol-5-yl]-(3-imidazol-1-yl-propylamino)-methyl]-4-methyl-phenol] are within 1.5-fold of each other in IC50: 0.668 µM for the first, 0.584 µM for the second.

Same assay, conditions: read-out: IC50

`CCCC(Nc1ccc2[nH]cnc2c1)c1nnnn1Cc1ccccc1` (centres unmarked) [compound 110, (1H-Benzoimidazol-5-yl)-[1-(1-benzyl-1H-tetrazol-5-yl)-butyl]-amine] and `CC(CC(Nc1ccc2[nH]cnc2c1)c1nnnn1CC1CCCO1)c1ccccc1` (centres unmarked) [compound 97, (1H-Benzoimidazol-5-yl)-{3-phenyl-1-[1-(tetrahydro-furan-2-ylmethyl)-1H-tetrazol-5-yl]-butyl}-amine] are within 1.5-fold of each other in IC50: 5.8 µM for the first, 4 µM for the second.

First: Cc1ccc(O)c(C(NCCCn2ccnc2)c2nnnn2C[C@@H]2CCCO2)c1 (stereo partly drawn) [compound 11, 2-((3-Imidazol-1-yl-propylamino)-{1-[(S)-1-(tetrahydro-furan-2-yl)methyl]-1H-tetrazol-5-yl}-methyl)-4-methyl-phenol]
Second: Cc1ccc(O)c(C(NCCCn2ccnc2)c2nnnn2C2CC2)c1 (centres unmarked) [Compound 68, 2-[(1-Cyclopropyl-1H-tetrazol-5-yl)-(3-imidazol-1-yl-propylamino)-methyl]-4-methyl-phenol]
The IC50 of the first is 7.8-fold higher: 3.1 µM for the first, 0.4 µM for the second. The second is the more potent here.

`c1cn(CCCNC(c2ccc3[nH]ccc3c2)c2nnnn2C2CC2)cn1` (centres unmarked) [compound 69, [(1-Cyclopropyl-1H-tetrazol-5-yl)-(1H-indol-5-yl)-methyl]-(3-imidazol-1-yl-propyl)-amine] and `COCCn1nnnc1C(NCCCn1ccnc1)c1ccc2[nH]ccc2c1` (centres unmarked) [compound 41, (3-Imidazol-1-yl-propyl)-{(1H-indol-5-yl)-[1-(2-methoxy-ethyl)-1H-tetrazol-5-yl]-methyl}-amine] are the same in IC50: 4.9 µM for the first, 4.9 µM for the second.

`Cc1cc(C)c(C(NCCCn2ccnc2)c2nnnn2C[C@@H]2CCCO2)cc1C` (stereo partly drawn) [compound 17, (3-Imidazol-1-yl-propyl)-[{1-[(S)-1-(tetrahydro-furan-2-yl)methyl]-1H-tetrazol-5-yl}-(2,4,5-trimethyl-phenyl)-methyl]-amine] and `CCCCn1nnnc1C(NCCCn1ccnc1)c1cc(C)c(C)cc1C` (centres unmarked) [compound 24, [(1-Butyl-1H-tetrazol-5-yl)-(2,4,5-trimethyl-phenyl)-methy]-(3-imidazol-1-yl-propyl)-amine] are within 1.5-fold of each other in IC50: 4 µM for the first, 4.9 µM for the second.

`CN(C)c1ccc(C(Nc2ccc3[nH]cnc3c2)c2nnnn2CC2CCCO2)cc1` (centres unmarked) [compound 108, (1H-Benzoimidazol-5-yl)-{(4-dimethylamino-phenyl)-[1-(tetrahydro-furan-2-ylmethyl)-1H-tetrazol-5-yl]-methyl}-amine] and `Cc1ccc(C(Nc2ccc3[nH]cnc3c2)c2nnnn2CC2CCCO2)cc1C` (centres unmarked) [compound 83, (1H-Benzoimidazol-5-yl)-{(3,4-dimethyl-phenyl)-[1-(tetrahydro-furan-2-ylmethyl)-1H-tetrazol-5-yl]-methyl}-amine] are within 1.5-fold of each other in IC50: 5.8 µM for the first, 4.9 µM for the second.

First: COC(=O)Cn1nnnc1C(NCCCn1ccnc1)[C@@H]1CCC=CO1 (stereo partly drawn) [compound 56, {5-[(S)-3,4-Dihydro-2H-pyran-2-yl-(3-imidazol-1-yl-propylamino)-methyl]-tetrazol-1-yl}-acetic methyl ester]
Second: COC(=O)Cn1nnnc1C(NCCCn1ccnc1)c1ccc2ccccc2n1 (centres unmarked) [compound 55, {5-[(3-Imidazol-1-yl-propylamino)-quinolin-2-yl-methyl]-tetrazol-1-yl}-acetic methyl ester]
The IC50 of the first is 2.2-fold higher: 4.9 µM for the first, 2.2 µM for the second.

First: c1ccc2c(C(Nc3ccc4[nH]cnc4c3)c3nnnn3CC3CCCO3)csc2c1 (centres unmarked) [compound 78]
Second: Cc1ccc2occ(C(Nc3ccc4[nH]cnc4c3)c3nnnn3CC3CCCO3)c(=O)c2c1 (centres unmarked) [compound 86, 3-{(1H-Benzoimidazol-5-ylamino)-[1-(tetrahydro-furan-2-ylmethyl)-1H-tetrazol-5-yl]-methyl}-6-methyl-chromen-4-one]
The IC50 of the first is 7.2-fold lower: 1.3 µM for the first, 9.4 µM for the second. The first is the more potent here.

Going from `COc1ccc(C(Nc2ccc3[nH]cnc3c2)c2nnnn2CC2CCCO2)cc1Br` (centres unmarked) [compound 109, (1H-Benzoimidazol-5-yl)-{(3-bromo-4-methoxy-phenyl)-[1-(tetrahydro-furan-2-ylmethyl)-1H-tetrazol-5-yl]-methyl}-amine] to `CCOC(=O)C1CCCCC1n1nnnc1C(Nc1ccc2[nH]cnc2c1)c1ccc(Cl)c(F)c1` (centres unmarked) [compound 84], the IC50 rises from 1.3 µM to 6.7 µM (5.2-fold). The first is the more potent here.

First: COc1ncc(C(NCCCn2ccnc2)c2nnnn2C(C)(C)C)c(OC)n1 (centres unmarked) [compound 62, [(1-tert-Butyl-1H-tetrazol-5-yl)-(2,4-dimethoxy-pyrimidin-5-yl)-methyl]-(3-imidazol-1-yl-propyl)-amine]
Second: Cc1ccc(O)c(C(NCCCn2ccnc2)c2nnnn2C(C)(C)C)c1 (centres unmarked) [compound 59, 2-[(1-tert-Butyl-1H-tetrazol-5-yl)-(3-imidazol-1-yl-propylamino)-methyl]-4-methyl-phenol]
The IC50 of the first is 6.5-fold higher: 8.5 µM for the first, 1.3 µM for the second.

`C/C=C/C=C/C(Nc1ccc2[nH]cnc2c1)c1nnnn1CC1COC(C)(C)O1` (centres unmarked) [compound 92, (1H-Benzoimidazol-5-yl)-{(2E,4E)-1-[1-(2,2-dimethyl-[1,3]dioxolan-4-ylmethyl)-1H-tetrazol-5-yl]-hexa-2,4-dienyl}-amine] and `CCc1ccc(C(Nc2ccc3[nH]cnc3c2)c2nnnn2Cc2cccnc2)cc1` (centres unmarked) [compound 82, (1H-Benzoimidazol-5-yl)-[(4-ethyl-phenyl)-(1-pyridin-3-ylmethyl-1H-tetrazol-5-yl)-methyl]-amine] are within 1.5-fold of each other in IC50: 4.9 µM for the first, 4 µM for the second.

Going from `Cc1ccc(O)c(C(NCCCn2ccnc2)c2nnnn2Cc2ccc(Cl)cc2)c1` (centres unmarked) [Compound 3, 2-[[1-(4-Chloro-benzyl)-1H-tetrazol-5-yl]-(3-imidazol-1-yl-propylamino)-methyl]-4-methyl-phenol] to `CCCCn1nnnc1C(NCCCn1ccnc1)c1ccc2ccccc2n1` (centres unmarked) [compound 22, [(1-Butyl-1H-tetrazol-5-yl)-quinolin-2-yl-methyl]-(3-imidazol-1-yl-propyl)-amine], the IC50 rises from 0.4 µM to 3.1 µM (7.8-fold). The first is the more potent here.
